Test results as given in PubChem BioAssay AID179 (DTP/NCI, 2004).
Active and inactive are the calls of the source.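 The calls were made as follows: active = compounds giving half or more protection of infected cells from virus-caused growth loss, again on retest; inactive = the rest.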 Where a SMILES comes first, the peptide text is derived from it.

System: CEM cells HIV-1 protection, formazan growth assay
Test: NCI AIDS Antiviral Assay
Details: for IC50: measured here: growth of uninfected CEM cells
In short: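 Human CEM cells, uninfected and HIV-1-infected, received five drug concentrations, and growth was read by soluble formazan assay. Compounds giving at least 50% protection were retested; reproducible 100% protection defined confirmed active.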

| SMILES | EC50 [µM] | IC50 [µM] | outcome |
| --- | --- | --- | --- |
| CC(C)S1=C2C(=O)CC(C)(C)CC2=Nc2ccccc21 (stereo not drawn) | 61.7 | > 200 |  |
| O=C(Nc1cccc(C(F)(F)F)c1)O/N=C(/Cl)CCl | > 200 | 33.9 |  |
| NC(=O)CSc1nc2ccccc2c(=O)n1N | > 200 | > 200 |  |
| CCOC(=O)C(=Cc1ccccc1[N+](=O)[O-])C(=O)OCC | > 324 | 5.89 |  |
| O=c1[nH]c(Nc2ccc(Cl)c(C(F)(F)F)c2)nc2nc[nH]c12 | > 200 | 89.1 |  |
| O=c1c2cc3c(cc2[nH]c2ncccc12)OCO3 | > 200 | 145 |  |
| Cc1ccc(/C=N/Nc2cc(C)c3cccc(C)c3n2)s1 | > 200 | 5.75 |  |
| CC12CCCCC1(C)C2Sc1ccccc1 (stereo not drawn) |  |  | inactive |
| CCc1cccc(C(C)(C)C)c1NC(=S)N/C=C(/C#N)C(N)=O | > 200 | 151 |  |
| CC12OC3(C)OC(=O)C(c4ccccc4)(O1)C3(C)O2 (stereo not drawn) |  |  | inactive |
| Cc1ccc(S(=O)(=O)SCc2ccccc2)cc1 | > 67.6 | 5.62 |  |
| C[N+]1=C(c2ccc[n+](C)c2/C=N/O)OCC1(C)C | > 501 | > 501 |  |
| O=C(Nc1ccc(Cl)cc1)NS(=O)(=O)c1ccc2c(c1)CCC2 | > 708 | 47.9 |  |
| CC1(C)CC[C@]2(C(=O)O)CCC3(C)C(=CCC4[C@@]5(C)CC[C@H](OC6OCC(O)C(O)C6OC6OC(CO)C(O)C(O)C6O)C(C)(C)C5CC[C@]43C)C2C1 (stereo partly drawn) |  |  | inactive |
| CCOC(=O)NC(OCCN(C)C)(C(F)(F)F)C(F)(F)F | > 200 | > 200 |  |
| CC(=O)Nc1ccc2cc3[nH]c4cc(NC(C)=O)ccc4c3nc2c1 | > 200 | 17.8 |  |
| Cc1ccc(-n2c(=S)n(-c3ccccc3C)c3nc4ccccc4nc2/c3=N\Nc2ccccc2)cc1 | > 200 | 123 |  |
| COc1cc(C(=O)O[C@@H]2[C@@H](OC(=O)c3cc(OC)c(OC)c(OC)c3)[C@@H](OC)O[C@@H]3CO[C@@H](c4ccccc4)O[C@@H]23)cc(OC)c1OC | > 200 | > 200 |  |
| CC1=N/C(=C\c2cccc(F)c2)C(=O)O1 | > 126 | > 126 |  |
| CC(C)C(=O)Oc1cc2c(=O)oc3c(OC(=O)C(C)C)c(OC(=O)C(C)C)cc4c(=O)oc(c1OC(=O)C(C)C)c2c34 | > 50.1 | > 50.1 |  |
| CCC(C)C(NC(=O)C(CCC(N)=O)NC(=O)C(CCCCN)NC(=O)C(CO)NC(=O)C(CC(C)C)NC(=O)C(Cc1ccc(O)cc1)NC(=O)C(C)N)C(=O)NC(C)C(=O)NC(CO)C(=O)NC(CC(N)=O)C(=O)O (stereo not drawn) (H-AYLSKQIASN-OH; configuration not given here) | > 57.5 | > 57.5 |  |
| Cc1cc(=O)n2c(n1)Nc1ccc(Cl)cc1C2 | > 52.5 | > 52.5 |  |
| CC(=O)c1c2c(cc3c1CC1(C3)Cc3cc4c(c(C(C)=O)c3C1)CCC4)CCC2 | > 18.6 | > 18.6 |  |

| SMILES | EC50 [µM] | IC50 [µM] | outcome |
| --- | --- | --- | --- |
| COC(=O)Cc1cc(=O)[nH]c2c1C(=O)CCC2 |  |  | inactive |
| COc1cc2c(cc1O)CN1Cc3c(ccc(OC)c3O)C2C1 (stereo not drawn) | > 282 | 251 |  |
| CC1=NN(C(=O)c2ccc(Cl)cc2)C(=O)/C1=C/c1ccco1 | > 22.9 | > 22.9 |  |
| CC1(C)CC(=O)C2=C(C1)NC1=C(C2)C(=O)CC(C)(C)C1 | > 200 | > 200 |  |
| CC(C)(C)C1CCC2c3c([nH]c4ccccc34)C3C(=O)N(c4ccc(Br)cc4)C(=O)C3C2C1 (stereo not drawn) | > 14.5 | > 14.5 |  |
| O=C1c2ccccc2C(=O)N1N1C(=O)c2ccccc2C1=O | > 200 | > 200 |  |
| S=C(Nc1ccc2c3c(cccc13)CC2)Nc1ccc2c3c(cccc13)CC2 | > 200 | 42.7 |  |
| O=[N+]([O-])c1ccc(C2=Cc3ccc4ccccc4[n+]3NC2)cc1 | > 50.1 | > 50.1 |  |
| O=C1c2c(O)ccc(O)c2C(=O)c2c(NCCCCO)ccc(NCCCCO)c21 | 15.8 | 17.4 |  |
| O/N=C1\CC(c2ccccc2)Oc2ccccc21 (stereo not drawn) | > 200 | 126 |  |
| C[N+](C)(C)CC1CCCCCCCCCCC1=O (stereo not drawn) | 60.3 | 148 |  |
| Nc1cc(Cl)cc2cc(Cl)cnc12 | > 200 | 117 |  |
| N=C(N)SCc1c2ccccc2c(CSC(=N)N)c2ccccc12 | > 20 | 3.16 |  |
| O=C1C=C2C(=CCOC2O)O1 (stereo not drawn) | > 16.2 | 0.191 |  |
| COC(=O)c1ccc(C)cc1C1CN=NC12Cc1cccc(C)c1C2=O (stereo not drawn) | > 200 | > 200 |  |
| O=C1C[C@H]2[C@@H](O1)[C@@H](O)CN1C(=O)c3ccccc3[C@H]21 | > 200 | > 200 |  |
| CS(=O)(=O)CS(=O)(=O)OCCCl | > 1050 | 182 |  |
| CCN(CC)C(=S)SC1C(=O)NC(=O)NC1=O | > 200 | > 200 |  |
| CCOC(=O)C(CCC1OCCO1)C(C)=O (stereo not drawn) | > 200 | > 200 |  |
| CCOC(=O)NC(C)(C)CN(CCO)C(=O)OCC | > 200 | > 200 |  |
| CCOC(=O)CN1CCSC1=NC#N |  |  | inactive |
| CCOC(=O)Nc1cc2c(c(N)n1)N=C(c1ccc3ccccc3c1)CN2 | > 200 | 0.309 |  |
| N#C/C(N)=C(\C#N)NC(=O)C(=O)N/C(C#N)=C(\N)C#N | 69.2 | > 200 |  |

| SMILES | EC50 [µM] | IC50 [µM] | outcome |
| --- | --- | --- | --- |
| Cc1cc(C)c(-c2noc(-c3ccc(Cl)cc3)c2C2=NCCCN2)c(C)c1 | > 35.5 | 24.5 |  |
| CC(=O)[O-].[Mn+3].[O-]c1ccccc1C=NCCNCCN=Cc1ccccc1[O-] | > 182 | 10.5 |  |
| NP(N)(=O)Nc1ccccc1 | 10.5 | > 200 |  |
| COc1cc(C(=O)c2cocc2C(=O)c2ccc3c(c2)OCO3)cc(OC)c1OC |  |  | inactive |
| Nc1nc[n+](Cc2ccccc2)c2ncn(Cc3ccccc3)c12 | > 631 | 95.5 |  |
| Nc1nc2c(ncn2C2OC(CO)CC2F)c(=O)[nH]1 (stereo not drawn) |  |  | active |
| CC1(C)Nc2cccc3c(N=Nc4ccc(N=Nc5ccccc5)c5ccccc45)ccc(c23)N1 | > 200 | 26.3 |  |
| O=C1CC(CC(=O)C2CCCCC2=O)CC(=O)N1 (stereo not drawn) |  |  | inactive |
| c1ccc(-n2nc3ccc4nonc4c3n2)cc1 | > 200 | > 200 |  |
| CC(=O)C(CN1CCCCC1)C(c1ccccc1)c1c(O)c2ccccc2oc1=O (stereo not drawn) | > 120 | 117 |  |
| CCOC(=O)C12CCC(c3c(C)cccc3C)(O1)C(C(=O)OC)=C2C(=O)OC (stereo not drawn) | > 200 | 107 |  |
| C=C[C@@H](C)[C@]1(C(=O)OC)CCCC12OCCO2 | > 282 | > 282 |  |
| Nc1nc2c(=O)c3ccccc3sc2s1 |  |  | inactive |
| COc1ccc(NC(=O)/C(C#N)=C/c2ccc(O)c(O)c2)cc1O | > 200 | 16.2 |  |
| Cc1cc(NS(=O)(=O)c2ccc(NC(=O)c3ccccc3SC(=O)CCCC[n+]3ccccc3)cc2)nc(C)n1 | 26.3 | 107 |  |
| C[N+]1(C)CC2C3C=CC(C3)C2C1 (stereo not drawn) | > 309 | > 309 |  |
| Cc1n(CC(=O)c2ccccc2)nc2sc(N)n[n+]12 | > 200 | 123 |  |
| COC(=O)/C1=C/C2CC(/C=C(/c3ccccc3)C(=O)O1)C2 |  |  | inactive |
| Cc1nn(C(=O)c2c(O)cccc2Cl)c(C)c1N=Nc1ccccc1 |  |  | inactive |
| COc1cc2c(cc1OC)C(=O)C1(C2)[C@H](c2ccccc2)C2C(=O)c3cc(OC)c(OC)cc3C2[C@H]1c1ccccc1 (stereo partly drawn) | > 200 | > 200 |  |
| O=C1Sc2ccccc2C(=O)N2CSCC12 (stereo not drawn) |  | > 200 | inactive |
| CCOc1ccccc1NC(=O)CC1Sc2ccccc2NC1=O (stereo not drawn) | > 55 | > 55 |  |
| Cc1nc2ccccc2c(=O)n1-c1ccccc1I | > 100 | > 100 |  |

| SMILES | EC50 [µM] | IC50 [µM] | outcome |
| --- | --- | --- | --- |
| O=C(O)C1CCCCC1c1c2ccc(=O)cc-2oc2cc(O)ccc12 (stereo not drawn) | > 200 | 10.7 |  |
| Cc1ccc(N/N=c2\c3nc4ccccc4nc2n(-c2ccccc2C)c(=S)n3-c2ccc(C)cc2)cc1 |  |  | inactive |
| CCOC(=O)C(Cc1ccccc1)NC(=O)c1[nH]cnc1/N=N/N(C)C (stereo not drawn) | > 692 | 355 |  |
| O=C(c1ccccc1)c1nc2c(Cl)ccc(Cl)c2cc1C(Br)Br | > 2.19 | > 2.19 |  |
| Cc1ccc(NC(=S)/N=C/C(C(=O)c2ccccc2)=C(\O)c2ccccc2)c(C)c1 | > 200 | 31.6 |  |
| CCC(C#N)NC(=O)NC(C#N)CC (stereo not drawn) | > 200 | 107 |  |
| O=c1c(O)c(O)c1=O.[NH2-].[NH2-].[NH2-].[NH2-].[NH2-].[Ru+5] | > 21.4 | > 21.4 |  |
| NS(=O)(=O)c1ccc(-c2c3nc(c(-c4ccc(S(N)(=O)=O)cc4)c4ccc([nH]4)c(-c4ccc(S(N)(=O)=O)cc4)c4nc(c(-c5ccc(S(N)(=O)=O)cc5)c5ccc2[nH]5)C=C4)C=C3)cc1 | > 97.7 | 46.8 |  |
| Cn1c(N=P(c2ccccc2)(c2ccccc2)c2ccccc2)c([N+](=O)[O-])c(=O)n(C)c1=O |  |  | inactive |
| Cc1cc(=O)n2c3c(c4c(cc13)c(CO)cc(=O)n4C)OC2 |  |  | inactive |
| CN(C)c1ccc(/C=N/NC2=N/C(=C\c3ccco3)C(=O)N2)cc1 | > 100 | > 100 |  |
| c1ccc(C[n+]2ccc3c(c2)CCCC3)cc1 | > 200 | 40.7 |  |
| COC1=CC(=O)C2C(C1=O)C(c1ccc(Cl)cc1)[C@@H]2C (stereo partly drawn) | > 170 | 28.2 |  |
| C/C(=C\c1ccccn1)c1ccccn1 | > 200 | > 200 |  |
| CSC(=O)/C=C1\SS/C(=C\C(=O)SC)S1 | > 200 | 3.09 |  |
| CCOC(=O)CNS(=O)(=O)c1ccccc1 | > 200 | > 200 |  |
| COc1nc(N=P(c2ccccc2)(c2ccccc2)c2ccccc2)cc(=O)n1C |  |  | inactive |
| CC(C)(CO)/[N+]([O-])=C/c1ccccc1 | > 200 | > 200 |  |
| CC1(CO)COS(=O)OC1 (stereo not drawn) | > 214 | > 214 |  |
| COc1ccc(CCNC(=O)/C(=C\c2ccc3c(c2)OCO3)NC(=O)c2ccccc2)cc1OC | > 200 | > 200 |  |
